From patent US20050276762A1, “Topical compositions containing 5'-adenosine-diphosphate ribose” (priority 2004, published 2005)

What was measured:
[1] = target: poly (ADP-ribose) polymerase (PARP) (Homo sapiens, UniProt P09874); experiment: PARP assay (in vitro PARP inhibition); type: biochemical; conditions: same concentration as ADP-ribose (4 to 10 mM); FIG. 2
Protocol: 1. […] 2. Cover the plate with an adhesive plate sealer and incubate for 2 hours at room temperature (or overnight at 2-8° C.). 1. […] After the last wash, remove any remaining PBS by decanting. Invert the plate and blot it against clean paper toweling. Note, at this time plates can be air dried and stored covered at room temperature for later use. 2. Block the wells by adding 50 μL of Strep Diluent to each well. 3. Cover the plate with an adhesive plate sealer and incubate for 1 hour at room temperature (or overnight at 2-8° C.). […] PARP will autoribosylate in the presence of NAD. 1. […] After the last wash, remove any remaining PBS by decanting. Invert the plate and blot it against clean paper toweling. 2. […] 3. Add inhibitor of interest. The final reaction volume is 50 μL/well. […] Enzyme is added last. • For 24 wells: Make for 20=2×0.5 units=10 units • 20 wells×5 μL=100 μL 10 μL enzyme+90 μl of 1× PARP buffer […] 5. Incubate the plate for 30 minutes at room temperature. The extent of ribosylation is time dependant; therefore this step can be extended if desired. 1. […] After the last wash, remove any remaining PBS by decanting. Invert the plate and blot it against clean paper toweling. 2. Dilute Strep-HRP • Dilute 1:500 • For 20 wells=1,100 μL Strep diluent+2.2 μL Strep-HRP • Add 50 μL of diluted Strep-HRP to each well. 3. Incubate for 30 minutes at 37° C. […] After the last wash, remove any remaining PBS by decanting. Invert the plate and blot it against clean paper toweling. 5. Add 50 μL TACS-Sapphire dye to each well. Incubate for 10 minutes in the dark.

Human A549 cells = conditions: for cytoprotection against H2O2 (in words): same concentration as ADP-ribose (25 or 50 μg/ml)

poly (ADP-ribose) polymerase (PARP), sequence (P09874 whole entry): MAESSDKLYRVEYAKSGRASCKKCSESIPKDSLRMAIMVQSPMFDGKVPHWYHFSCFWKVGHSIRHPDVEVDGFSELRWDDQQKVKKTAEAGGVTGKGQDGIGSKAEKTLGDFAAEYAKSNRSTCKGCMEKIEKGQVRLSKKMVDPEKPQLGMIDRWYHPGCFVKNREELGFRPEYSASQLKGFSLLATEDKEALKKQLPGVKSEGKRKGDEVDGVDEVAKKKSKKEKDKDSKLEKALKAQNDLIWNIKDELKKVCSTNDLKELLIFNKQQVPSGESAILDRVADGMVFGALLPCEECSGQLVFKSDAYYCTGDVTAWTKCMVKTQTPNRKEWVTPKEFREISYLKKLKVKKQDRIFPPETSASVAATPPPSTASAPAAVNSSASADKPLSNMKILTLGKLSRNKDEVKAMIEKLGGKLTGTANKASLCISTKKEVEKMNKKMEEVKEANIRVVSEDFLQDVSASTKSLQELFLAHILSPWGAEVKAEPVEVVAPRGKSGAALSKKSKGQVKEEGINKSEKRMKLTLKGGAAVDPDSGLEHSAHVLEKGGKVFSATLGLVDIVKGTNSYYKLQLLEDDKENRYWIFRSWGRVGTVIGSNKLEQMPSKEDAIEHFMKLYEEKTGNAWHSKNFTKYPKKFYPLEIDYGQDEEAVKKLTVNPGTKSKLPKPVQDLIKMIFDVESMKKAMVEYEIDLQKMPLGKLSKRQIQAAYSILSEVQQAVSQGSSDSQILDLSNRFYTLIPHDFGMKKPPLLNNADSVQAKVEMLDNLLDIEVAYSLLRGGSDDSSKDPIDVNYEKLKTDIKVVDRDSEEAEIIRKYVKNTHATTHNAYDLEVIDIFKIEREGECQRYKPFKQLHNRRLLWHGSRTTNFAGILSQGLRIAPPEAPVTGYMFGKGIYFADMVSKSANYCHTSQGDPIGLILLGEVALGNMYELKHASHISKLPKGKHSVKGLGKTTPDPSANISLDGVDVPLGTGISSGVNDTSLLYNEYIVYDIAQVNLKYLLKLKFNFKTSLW

Compound | inhibition of PARP activity (in words) [1] | cytoprotection against H2O2 (in words) (Human A549 cells) | protection from H2O2 cytotoxicity (Human A549 cells) | protection of cells from cytotoxicity mediated cell death (in words) (Human A549 cells)
Nc1ncnc2c1ncn2[C@@H]1O[C@H](CO)[C@@H](O)[C@H]1O [adenosine] | unable to inhibit PARP activity | cytoprotection was specific to ADP-ribose | – | –
Nc1ncnc2c1ncn2[C@@H]1O[C@H](COP(=O)(O)OP(=O)(O)O[C@H]2O[C@H](CO)[C@@H](O)[C@H](O)[C@H]2O)[C@@H](O)[C@H]1O [ADP-glucose] | unable to inhibit PARP activity | cytoprotection was specific to ADP-ribose | ~25% | –
N=c1c2ncn3c2ncn1[C@@H]1O[C@H](COP(=O)(O)OP(=O)(O)OC[C@H]2O[C@@H]3[C@H](O)[C@@H]2O)[C@@H](O)[C@H]1O [cADP-ribose] | – | – | – | unable to protect cells from cytotoxicity mediated cell death
Nc1ncnc2c1ncn2[C@@H]1O[C@H](COP(=O)(O)O)[C@@H](O)[C@H]1O [AMP] | unable to inhibit PARP activity | cytoprotection was specific to ADP-ribose | – | –
